# In patent US6706663B2, “Herbicidal 3-heterocyclic substituted benzisothiazole and benzisoxazole compounds” (Wyeth, priority 2000, dated 2004):
# Tests used:
# [1] = tested on: ZEAMX (Corn, Field); assay: Preemergence herbicidal evaluation; assay type: in vivo, Zea mays, L.; details: rated 4-5 weeks after treatment
# [2] = tested on: ECHORC (Echinochloa oryzoides); assay: Flooded paddy, preemergence weed control; assay type: in vivo, Echinochloa oryzoides (Ard.) Fritsch.; details: rated 3-4 weeks after treatment, 0-9 rating scale
# Outline: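 In this preemergence paddy assay, weed seeds or organs are sown at up to 0.5 cm in silt loam and covered by 1.5–3 cm of water for the full test period. After treatment the pots are kept in a greenhouse, and herbicidal effect is rated 0-9 visually against a control.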
# [3] = tested on: GLXMA (Soybean); assay: Preemergence herbicidal evaluation; assay type: in vivo, Glycine max, (L.) Merr.; details: rated 4-5 weeks after treatment
# [4] = tested on: ECHCG (Echinochloa crus-galli); assay: Postemergence herbicidal evaluation; assay type: in vivo, (L.) Beau; details: for ECHCG herbicidal rating: postemergence
# Outline: (§1)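 Seedlings grown for about two weeks were sprayed postemergence and then kept under standard greenhouse care. Injury was rated visually 4–5 weeks after treatment on a 0–9 scale against untreated controls, and ratings from repeat tests were averaged.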
# [5] = tested on: ABUTH (Abutilon theophrasti); assay: Preemergence herbicidal evaluation; assay type: in vivo, Medic.; details: rated 4-5 weeks after treatment
# [6] = tested on: IPOHE (Ipomoea hederacea); assay: Preemergence herbicidal evaluation; assay type: in vivo, (L.) Jacq.; details: rated 4-5 weeks after treatment
# [7] = tested on: TRZAWR (Wheat, Winter, cv Riband); assay: Preemergence herbicidal evaluation; assay type: in vivo, Triticum aestivum; details: rated 4-5 weeks after treatment
# Outline: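 Seeds mixed with potting soil were planted atop about one inch of soil, then sprayed with test compound in aqueous acetone. Cups were kept in the greenhouse and rated visually 4–5 weeks after treatment on a 0–9 scale against untreated control.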
# [8] = tested on: GLXMAW (Soybean, Williams); assay: Postemergence herbicidal evaluation; assay type: in vivo, Glycine max, (L.) Merr. cv Williams; details: for GLXMAW herbicidal rating: postemergence
# Outline: as §1
# [9] = tested on: GLXMAW (Soybean, Williams); assay: Preemergence herbicidal evaluation; assay type: in vivo, Glycine max, (L.) Merr. cv Williams; details: rated 4-5 weeks after treatment
# [10] = tested on: ZEAMX (Corn, Field); assay: Postemergence herbicidal evaluation; assay type: in vivo, Zea mays, L.; details: for ZEAMX herbicidal rating: postemergence
# Outline: as §1
# [11] = tested on: ORYSAT (Rice, Tebonnet); assay: Flooded paddy, post-transplant rice tolerance; assay type: in vivo, Oryza sativa, (L.) Tebonnet; details: flooded paddy, post-transplant rice, rated 3-4 weeks after treatment, 0-9 rating scale
# Outline: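 Two ten-day-old seedlings were transplanted into silt loam, flooded and held at 1.5 to 3 cm water above the soil before herbicide treatment. Pots stayed in the greenhouse at that water level. Injury was scored visually on a 0-9 scale versus untreated control.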
# [12] = preemergence, rate 0.0620 kg/ha
# [13] = preemergence, rate 0.1250 kg/ha
# [14] = preemergence, rate 0.2500 kg/ha
smiles,measurement,setting,value
"Cn1c(C(F)(F)F)cc(=O)n(-c2ccc3snc(C4OCCO4)c3c2)c1=O [Compound 45, 3-[3-(1,3-dioxolan-2-yl)-1,2-benzisothiazol-5-yl]-1-methyl-6-(trifluoromethyl)uracil]",Preemergence herbicidal rating ZEAMX,[1]; Rate 0.0620 kg/ha,8.8
same,Preemergence herbicidal rating ZEAMX,[1]; Rate 0.1250 kg/ha,9.0
same,Preemergence herbicidal rating ZEAMX,[1]; Rate 0.2500 kg/ha,8.7
same,"herbicidal rating, ECHORC",[2]; rate 0.0080 kg/ha,3.5
same,"herbicidal rating, ECHORC",[2]; rate 0.0320 kg/ha,7.3
same,"herbicidal rating, ECHORC",[2]; rate 0.1250 kg/ha,9.0
same,Preemergence herbicidal rating GLXMA,[3]; Rate 0.0620 kg/ha,9.0
same,Preemergence herbicidal rating GLXMA,[3]; Rate 0.1250 kg/ha,9.0
same,Preemergence herbicidal rating GLXMA,[3]; Rate 0.2500 kg/ha,9.0
same,"Postemergence herbicidal rating, ECHCG",[4]; rate 0.0320 kg/ha,2.8
same,"Postemergence herbicidal rating, ECHCG",[4]; rate 0.0620 kg/ha,4.0
same,Preemergence herbicidal rating ABUTH,[5]; Rate 0.0620 kg/ha,9.0
same,Preemergence herbicidal rating ABUTH,[5]; Rate 0.1250 kg/ha,9.0
same,Preemergence herbicidal rating ABUTH,[5]; Rate 0.2500 kg/ha,9.0
same,Preemergence herbicidal rating IPOHE,[6]; Rate 0.0620 kg/ha,9.0
same,Preemergence herbicidal rating IPOHE,[6]; Rate 0.1250 kg/ha,9.0
same,Preemergence herbicidal rating IPOHE,[6]; Rate 0.2500 kg/ha,9.0
same,Preemergence herbicidal rating TRZAWR,[7]; Rate 0.0620 kg/ha,9.0
same,Preemergence herbicidal rating TRZAWR,[7]; Rate 0.1250 kg/ha,9.0
same,Preemergence herbicidal rating TRZAWR,[7]; Rate 0.2500 kg/ha,9.0
same,"Postemergence herbicidal rating, GLXMAW",[8]; rate 0.0320 kg/ha,8.8
same,"Postemergence herbicidal rating, GLXMAW",[8]; rate 0.0620 kg/ha,8.8
same,Preemergence herbicidal rating GLXMAW,[9]; Rate 0.0620 kg/ha,9.0
same,Preemergence herbicidal rating GLXMAW,[9]; Rate 0.1250 kg/ha,9.0
same,Preemergence herbicidal rating GLXMAW,[9]; Rate 0.2500 kg/ha,9.0
same,"Postemergence herbicidal rating, ZEAMX",[10]; rate 0.0320 kg/ha,5.5
same,"Postemergence herbicidal rating, ZEAMX",[10]; rate 0.0620 kg/ha,6.0
same,"herbicidal rating, ORYSAT (rice tolerance)",[11]; rate 0.0080 kg/ha,8.5
same,"herbicidal rating, ORYSAT (rice tolerance)",[11]; rate 0.0320 kg/ha,9.0
same,"herbicidal rating, ORYSAT (rice tolerance)",[11]; rate 0.1250 kg/ha,9.0
"CSCC1COC(c2nsc3ccc(-n4c(=O)cc(C(F)(F)F)n(C)c4=O)cc23)O1 (centres unmarked) [Compound 84, 1-methyl-3-[3-[4-[(methylthio)methyl]-1,3-dioxolan-2-yl]-1,2-benzisothiazol-5-yl]-6-(trifluoromethyl)uracil]",Preemergence herbicidal rating ZEAMX,[1]; [12],3.7
same,Preemergence herbicidal rating ZEAMX,[1]; [13],6.3
same,Preemergence herbicidal rating ZEAMX,[1]; [14],8.0
same,"herbicidal rating, ECHORC",[2]; rate 0.0080 kg/ha,0.0
same,"herbicidal rating, ECHORC",[2]; rate 0.0320 kg/ha,7.5
same,"herbicidal rating, ECHORC",[2]; rate 0.1250 kg/ha,8.0
same,Preemergence herbicidal rating GLXMA,[3]; [12],9.0
same,Preemergence herbicidal rating GLXMA,[3]; [13],9.0
same,Preemergence herbicidal rating GLXMA,[3]; [14],9.0
same,ECHCG herbicidal rating,[4]; rate 0.0320 kg/ha,4.5
same,ECHCG herbicidal rating,[4]; rate 0.0620 kg/ha,6.5
same,ECHCG herbicidal rating,[4]; rate 0.1250 kg/ha,9.0
same,Preemergence herbicidal rating ABUTH,[5]; [12],9.0
same,Preemergence herbicidal rating ABUTH,[5]; [13],9.0
same,Preemergence herbicidal rating ABUTH,[5]; [14],9.0
same,Preemergence herbicidal rating IPOHE,[6]; [12],6.3
same,Preemergence herbicidal rating IPOHE,[6]; [13],8.3
same,Preemergence herbicidal rating IPOHE,[6]; [14],9.0
same,Preemergence herbicidal rating TRZAWR,[7]; [12],2.0
same,Preemergence herbicidal rating TRZAWR,[7]; [13],5.0
same,GLXMAW herbicidal rating,[8]; rate 0.0320 kg/ha,8.5
same,GLXMAW herbicidal rating,[8]; rate 0.0620 kg/ha,9.0
same,GLXMAW herbicidal rating,[8]; rate 0.1250 kg/ha,9.0
same,Preemergence herbicidal rating GLXMAW,[9]; [12],7.0
same,Preemergence herbicidal rating GLXMAW,[9]; [13],9.0
same,Preemergence herbicidal rating GLXMAW,[9]; [14],9.0
same,ZEAMX herbicidal rating,[10]; rate 0.0320 kg/ha,4.8
same,ZEAMX herbicidal rating,[10]; rate 0.0620 kg/ha,6.0
same,ZEAMX herbicidal rating,[10]; rate 0.1250 kg/ha,8.5
same,"herbicidal rating, ORYSAT (rice tolerance)",[11]; rate 0.0080 kg/ha,0.0
same,"herbicidal rating, ORYSAT (rice tolerance)",[11]; rate 0.0320 kg/ha,1.5
same,"herbicidal rating, ORYSAT (rice tolerance)",[11]; rate 0.1250 kg/ha,5.5
